Data taken from patent US7579006B2, “Method of treating immune pathologies with low dose estrogen” (Oregon Health and Science University, priority 2000, dated 2009).

Tests used:
Assay type in all cases: in vivo
[1] = system: B10.PL mice; assay: EAE induced with MBP Ac1-11 in B10.PL mice; conditions: for inhibition of EAE: B10.PL females
[2] = system: draining lymph node (DLN) cells; assay: Flow cytometry of activation and adhesion markers on DLN cells of SJL mice with EAE; conditions: DLN cells at peak of EAE
Description: Immunofluorescent staining for flow cytometry. Draining lymph node (DLN) cells were removed during the peak of clinical symptoms and analyzed for the expression of cell surface proteins by fluorescent staining ex vivo. The following fluorochrome conjugated antibodies obtained from Pharmingen Inc. (San Diego, Calif.) were used for the direct staining of DLN cells: anti-CD4, anti-CD25, anti-CD69, anti-CD95L, anti-CD44, anti-CD62L, anti-CD49d. Two-color immunofluorescent analysis was performed on a FACScan instrument (Becton Dickinson, Mountain View, Calif.) using Cellquest software. For each experiment the cells were stained with isotype control antibodies to establish background staining, and to set the quadrants prior to calculating the percent positive staining cells. […] Alterations in the expression of adhesion or activation markers on T cells are often indicative of functional changes in the cell. Monoclonal antibodies specific for a number of these markers were used to assess whether estrogen therapy altered their expression. Draining lymph node (DLN) cells were recovered from mice during the peak of clinical EAE, incubated with the indicated fluorochrome conjugated monoclonal antibodies, and surface expression measured by fluorescent activated cell analyzer.

[3] = system: Tg female mice; assay: EAE in BV8S2 transgenic (Tg) female mice; conditions: for inhibition of EAE: Tg females
[4] = system: C57BL/6 mice; assay: EAE induced with MOG 35-55 in C57BL/6 mice (clinical, histopathology)
Description: (§1) Estrogen treatment. Sixty-day release pellets containing 2.5 mg of 17β-estradiol (E2) or vehicle were implanted subcutaneously (s.c) in the scapular region behind the neck using a 12-gauge trochar as described by the manufacturer (Innovative Research of America, Sarasota, Fla.). The mice were implanted one week prior to immunization with MOG 35-55. The concentration of E2 expected in the serum is between 1,500-2,000 pg/ml, which is approximately 5 times less than the levels found during pregnancy.
(§2) Induction of EAE. C57BL/6 and cytokine deficient mice were inoculated s.c in the flanks with 0.2 ml of an emulsion containing 200 μg of MOG 35-55 in saline and an equal volume of complete Freund's Adjuvant (CFA) containing 400 μg of Mycobacterium tuberculosis H37RA (Difco Laboratories, Detroit, Mich.). Disease induction required i.v. administration of pertussis toxin on the day of immunization (25 ng/mouse) and 2 days later (67 ng/mouse). The mice were assessed daily for clinical signs of EAE according to the 7 point scale described in Example I.
(§3) Histopathology. Histopathologic assessment of spinal column section was performed essentially as described in Example I, except that sections were stained with either luxol fast blue-periodic acid schiff-hematoxylin or silver nitrate prior to analysis.
(§4) Statistical analysis. Significant differences in incidence and mortality between untreated and E2 treated mice were assessed by Chi-square analysis. Difference in onset was determined using the two-tailed Student t test. Differences in peak score and cumulative disease index (CDI) were assessed by the Mann-Whitney test. Statistical significance of the frequency of cytokine secreting cells was analyzed using Student's t test for comparisons of two means. Differences in the expression of chemokine and cytokine mRNA were also determined using the Student t test. Values of p<0.05 were considered significant.

[5] = system: IL-4 KO mice; assay: EAE induced with MOG 35-55 in IL-4 KO mice (clinical, histopathology); conditions: 2.5 mg pellet
Description: as §1, §2, §3, §4

[6] = system: IL-10 KO mice; assay: EAE induced with MOG 35-55 in IL-10 KO mice (clinical, histopathology); conditions: 2.5 mg pellet
Description: as §1, §2, §3, §4

[7] = 0.36 mg pellet, intact Tg females (Example III)
[8] = non-ovariectomized Tg females, BV8S2 with weekly boosting, E2 0.36 mg pellets

`C[C@]12CC[C@@H]3c4ccc(O)cc4CC[C@H]3[C@@H]1CC[C@@H]2O` [17β-estradiol] was tested, and the CDT ([1]; 0.18 mg/pellet (diestrus)) was 5.8 ± 2.9, the Incidence ([1]; 0.18 mg/pellet (diestrus)) was 3/6 and the “Incidence (%)” value ([1]; 0.18 mg/pellet (diestrus)) was 50%. The Onset ([1]; 0.18 mg/pellet (diestrus)) was 25.7 ± 1.2 days, the “Peak (disease score)” value ([1]; 0.18 mg/pellet (diestrus)) was 1.7 ± 0.92 and the CDT ([1]; 0.36 mg/pellet (estrus)) was 13.5 ± 6.2. The Incidence ([1]; 0.36 mg/pellet (estrus)) was 15/26, the “Incidence (%)” value ([1]; 0.36 mg/pellet (estrus)) was 58% and the Onset ([1]; 0.36 mg/pellet (estrus)) was 26.5 ± 1.3 days. The “Peak (disease score)” value ([1]; 0.36 mg/pellet (estrus)) was 2.61 ± 0.60, the CDT ([1]; 2.50 mg/pellet (pregnancy)) was 0 ± 0 and the Incidence ([1]; 2.50 mg/pellet (pregnancy)) was 0/15. The “Incidence (%)” value ([1]; 2.50 mg/pellet (pregnancy)) was 0%, the Onset ([1]; 2.50 mg/pellet (pregnancy)) was 0 ± 0 days and the “Peak (disease score)” value ([1]; 2.50 mg/pellet (pregnancy)) was 0 ± 0. The CDT ([1]; 15.0 mg/pellet (high)) was 1.4 ± 3.8, the Incidence ([1]; 15.0 mg/pellet (high)) was 2/8 and the “Incidence (%)” value ([1]; 15.0 mg/pellet (high)) was 25%. The Onset ([1]; 15.0 mg/pellet (high)) was 29 ± 1.4 days, the “Peak (disease score)” value ([1]; 15.0 mg/pellet (high)) was 2.0 ± 1.0 and the “inhibition of EAE” value ([1]; 2.5 mg pellets) was “essentially complete inhibition of EAE”. The “inhibition of EAE” value ([1]; 15 mg pellets) was “essentially complete inhibition of EAE”, the “inhibition of EAE” value ([1]; estrus (0.36 mg pellets) to diestrus levels (0.10 mg pellets)) was “substantial inhibition” and the “CD4, % of Total” value ([2]; 0.36 mg pellet) was 49%. The “CD25, % of CD4+ T cells” value ([2]; 0.36 mg pellet) was 5.9%, the “CD44, % of CD4+ T cells” value ([2]; 0.36 mg pellet) was 43% and the “CD62L, % of CD4+ T cells” value ([2]; 0.36 mg pellet) was 7.0%. For the same molecule, the “CD69, % of CD4+ T cells” value ([2]; 0.36 mg pellet) was 6.6%, the “CD49d, % of CD4+ T cells” value ([2]; 0.36 mg pellet) was 45% and the “FASL, % of CD4+ T cells” value ([2]; 0.36 mg pellet) was 2.7%. The “CD4, % of Total” value ([2]; 2.5 mg pellet) was 49%, the “CD25, % of CD4+ T cells” value ([2]; 2.5 mg pellet) was 6.3% and the “CD44, % of CD4+ T cells” value ([2]; 2.5 mg pellet) was 41%. The “CD62L, % of CD4+ T cells” value ([2]; 2.5 mg pellet) was 6.7%, the “CD69, % of CD4+ T cells” value ([2]; 2.5 mg pellet) was 6.5% and the “CD49d, % of CD4+ T cells” value ([2]; 2.5 mg pellet) was 43%. For the same molecule, the “FASL, % of CD4+ T cells” value ([2]; 2.5 mg pellet) was 4.2%, the CDI [3, 7] was 40.4 ± 7.1 and the Incidence [3, 7] was 15/18. For the same molecule, the Onset [3, 7] was 17.4 ± 1.8, the Peak [3, 7] was 2.5 ± 0.5 and the “inhibition of EAE” value ([3]; 0.36 mg pellets) was “only moderate inhibition”. For the same molecule, the “inhibition of EAE” value ([3]; 15 mg pellets) was “marked but incomplete inhibition of EAE”, the “Average CDI (10-30)” value [3, 8] was 37.3 ± 6.2^A and the Incidence [3, 8] was 25/33. The Mortality [3, 8] was 1/33, the Onset [3, 8] was 15.1 ± 2.1A and the Peak [3, 8] was 3.6 ± 0.7^A. For the same molecule, the CDI ([4]; B6, 2.5 mg pellet) was 15.1 ± 17.0, the Incidence ([4]; B6, 2.5 mg pellet) was 19/31 and the Mortality ([4]; B6, 2.5 mg pellet) was 0/31. The Onset ([4]; B6, 2.5 mg pellet) was 20.8 ± 3.7, the “Peak Score” value ([4]; B6, 2.5 mg pellet) was 4.2 ± 1.2 and the “Inflammatory foci/section” value ([4]; C57BL/6, 2.5 mg pellet, spinal cord) was 0.0 ± 0.0 Foci/Section. The CDI ([5]; IL-4 KO) was 18.4 ± 22.2, the Incidence ([5]; IL-4 KO) was 8/11 and the Mortality ([5]; IL-4 KO) was 0/11. For the same molecule, the Onset ([5]; IL-4 KO) was 20.6 ± 4.9, the “Peak Score” value ([5]; IL-4 KO) was 4.4 ± 1.0 and the “Inflammatory foci/section” value ([5]; IL-4KO, spinal cord) was 0.0 ± 0.0 Foci/Section. The CDI ([6]; IL-10 KO) was 6.5 ± 10.9, the Incidence ([6]; IL-10 KO) was 6/17 and the Mortality ([6]; IL-10 KO) was 0/17. For the same molecule, the Onset ([6]; IL-10 KO) was 22.0 ± 4.3, the “Peak Score” value ([6]; IL-10 KO) was 4.2 ± 0.8 and the “Inflammatory foci/section” value ([6]; IL-10KO, spinal cord) was 0.0 ± 0.0 Foci/Section.
